Results from paper PMC12030314, “Biomarker-Driven Pharmacokinetics and Efficacy of Polymyxin B in Critically Ill Patients with XDR-GN Pneumonia” (Pharmaceuticals, 2025).
Where two headings read alike, the source gives them in different places. Where a SMILES comes first, the peptide text is derived from it. Bridges are numbered along the chain shown (N, C = ends). [ ]: non-standard residue; d: D form. The star is where a group is joined. X1 = CC[C@H](C)CCCCC(=O)*; Dab = NCC[C@H](N)C(=O)O

Experiments:
[1] = PMB concentration in epithelial lining fluid (BAL, urea dilution method); format: in vivo; conditions: human, iv, 50 mg; for Kp at 96 h: epithelial lining fluid / plasma, read-out: ELF/plasma ratio; for level at 96 h: epithelial lining fluid; for Cmax: plasma, patients with BAL samples
Method: BAL sample collection was possible for 15 of the patients. If the patients’ respiratory status permitted, one BAL was performed immediately after the seventh dose (on day 4 of treatment). Four 20 mL aliquots of sterile 0.9% normal saline solution were instilled, immediately aspirated, and placed on ice. The aspirate from the first 20 mL instillation was collected and discarded. The aspirates recovered from the second, third, and fourth instillations were pooled.
Blood and BAL samples were centrifuged for 10 min (3000 rpm) and immediately stored at −80 °C until analysis.
PMB concentrations in the samples were quantified by monitoring the total concentrations of polymyxin B1 (PB1), polymyxin B2 (PB2), polymyxin B3 (PB3), and isoleucine polymyxin B1 (I-PB1) via a validated ultraperformance liquid chromatography–tandem mass spectrometry (UPLC-MS/MS) assay. The standard substances, including PB1 (CAS P037), PB2 (CAS P037), PB3 (CAS P040), and I-PB1 (CAS P038), were purchased by TOKU-E Company (>99% pure, Bellingham, WA, USA). ACQUITY UPLC system, Quattro PremierXE triple quadrupole mass spectrometer, electrospray isonizaiton source (ESI), and Masslynx 4.1 data processing software were used in this study (Waters Company, Milford, MA, USA). An Acquity UPLC BEH C18 column (50 mm × 2.1 mm internal diameter, 1.8 μm) purchased from Waters (Milford, MA, USA) was used. The mobile phase comprised a 0.2% formic acid aqueous solution and a 0.2% formic acid acetonitrile solution, and the flow rate was 0.3 mL/min. Mass spectrometric detection was performed in positive electrospray ionization (ESI+) mode with multiple reaction monitoring (MRM). The optimized transitions were set as follows: m/z 602.7→101.0 for PB1 and I-PB1, m/z 595.7→100.9 for PB2 and PB3, and […] for the internal standard norvancomycin. Plasma and BAL supernatant was aliquoted into microcentrifuge tubes and sequentially treated with 20 μL norvancomycin or 200 μL 5% trichloroacetic acid. 1 μL plasma and 2 μL BAL of supernatant were collected separately for the detection of PMB concentrations.
The ELF recovery rate was calculated via the urea dilution method, as reported in previous studies. The concentration of urea was analysed with a commercial kit purchased from Beijing Solarbio Science & Technology Co., Ltd., Beijing, China (BC1535). The concentration of PMB in the ELF (ELF[PMB]) was measured by using urea as an endogenous marker of ELF dilution via the following equation: ELF[PMB] = BAL[PMB] × (blood urea/BAL[Urea]), where BAL[PMB] is the concentration of PMB in BAL and BAL[Urea] is the concentration of urea in BAL.

PK/PD targets attainment = format: in vivo, human
Method: The primary PD response was evaluated by PK/PD indices. An AUCss,0–24h of 50–100 mg·hour/L or a Css,avg of 2–4 mg/L was used as the PK/PD targets for PMB. The secondary PD response was evaluated by clinical parameters. An achievement of the treatment success at the end of treatment was defined by either (1) physicians’ judgment of improvement in signs and symptoms (reasonable compromise on the basis of survival, stable, or improved haemodynamics and oxygenation index and improved chemical and physiological indices of infection) or (2) microbiological elimination. […] The percentage of patients who achieved the PK/PD targets or treatment success was calculated. Variables potentially related to clinical efficacy were assessed. Receiver operating characteristic (ROC) curves were drawn to investigate and compare different indices as predictors of clinical efficacy. The optimal cutoff point for the PK/PD indices was calculated with the Youden index.

[2] = cited from earlier work
[3] = Asian and American patients, one-compartment model, ref Manchandani et al., 2018 [47]
[4] = Asian and American patients, ref Manchandani et al., 2018 [47]
[5] = Brazilian, Australian critically ill patients, ref Sandri et al., 2013 [48]
[6] = Chinese MDR Gram-negative infected patients, ref Wang et al., 2020 [50]
[7] = Chinese critically ill patients, CRO nosocomial pneumonia, ref Tang et al., 2023 [59]
[8] = Chinese critically ill patients, CRO nosocomial pneumonia, ref Zhang et al., 2023 [60]
[9] = Chinese critically ill patients, ref Pi et al., 2023 [57]
[10] = Chinese patients with CRKP bloodstream infections, ref Yu et al., 2022 [56]
[11] = Chinese patients with various renal functions, 100–200 mg/day, ref Yu et al., 2020 [51]
[12] = ECMO, Russian critically ill patients, ref Surovoy et al., 2022 [53]
[13] = Non-ECMO, Russian critically ill patients, ref Surovoy et al., 2022 [53]
[14] = Renal insufficiency, Thai, American patients, ref Thamlikitkul et al., 2016 [52]

Which results are given for CC[C@H](C)CCCCC(=O)N[C@@H](CCN)C(=O)N[C@H](C(=O)N[C@@H](CCN)C(=O)N[C@H]1CCNC(=O)[C@H]([C@@H](C)O)NC(=O)[C@H](CCN)NC(=O)[C@H](CCN)NC(=O)[C@H](CC(C)C)NC(=O)[C@@H](Cc2ccccc2)NC(=O)[C@H](CCN)NC1=O)[C@@H](C)O [PMB, polymyxin B] (X1-[Dab]T[Dab][Dab][Dab][dF]L[Dab][Dab]T; lactam 4-C)?
Kp at 96 h ([1]; treatment failure group, median [IQR]): 0.088; Kp at 96 h ([1]; treatment success group, median [IQR]): 0.17; level at 96 h ([1]; BAL immediately after the seventh dose (day 4), urea dilution method, median and IQR, read-out: ELF concentration): 900 ng/mL; level at 96 h ([1]; treatment failure group, median [IQR], read-out: PMB concentration in the ELF): 980 ng/mL; level at 96 h ([1]; treatment success group, median [IQR], read-out: PMB concentration in the ELF): 840 ng/mL; Cmax ([1]; median and IQR, read-out: plasma Cmax): 7460 ng/mL; Cmax ([1]; treatment failure group, median [IQR], read-out: Cmax): 11100 ng/mL; Cmax ([1]; treatment success group, median [IQR], read-out: Cmax): 5940 ng/mL; treatment success among patients who reached the target Css,avg of 2–4 mg/L (PK/PD targets attainment; 9 patients): 77.78%; treatment success among patients who reached the target AUCss,0–24h of 50–100 (PK/PD targets attainment; 13 patients): 76.95%; treatment success among patients who exceeded the target AUCss,0–24h (PK/PD targets attainment; in vivo): 92.31%; V1 ([2]; American acutely ill patients, Gram-negative infection, loading 2.5 to 3 mg/kg, maintenance 2.8 mg/kg/day, one-compartment model, ref Kubin et al., 2018 [46]): 34.4 L; V2 ([2]; American acutely ill patients, Gram-negative infection, two-compartment model, ref Miglis et al., 2018 [45]): 78.20 L; CL ([2]; American critically ill patients with Gram-negative infections): approximately 2.5 L/h; V [2, 3]: 34.3 L; t1/2 [2, 3]: 10.1 h; AUC in patients with nephrotoxicity [2, 4]: 52300 ng·h/mL; AUC in patients without nephrotoxicity [2, 4]: 45100 ng·h/mL; AUCss,0–24h ([2]; Brazilian, Australian critically ill patients, 0.45–3.38 mg/kg/day, nonlinear mixed-effects model (PMB1 and PMB2), ref Sandri et al., 2013 [48]): 66900 ng·h/mL; CL [2, 5]: 0.46 mL/min/kg; Css,avg [2, 5]: 2790 ng/mL; V1 [2, 5]: 0.0939 L/kg; V2 [2, 5]: 0.330 L/kg; AUCss,0–24h ([2]; Chinese MDR Gram-negative infected patients, all, ref Wang et al., 2021 [49]): 80140 ng·h/mL; V1 ([2]; Chinese MDR Gram-negative infected patients, 100 to 200 mg/day, one- and two-compartment models, ref Wang et al., 2020 [50]): 6.218 L; AUCss,0–12 h [2, 6]: 43640 ng·h/mL; CL [2, 6]: 1.786 L/h; V2 [2, 6]: 11.922 L; Css,avg ([2]; Chinese MDR Gram-negative infected patients, ref Wang et al., 2021 [49]): 3330 ng/mL; AUCss,0–24h [2, 7]: 67200 ng·h/mL; Cmax,ss [2, 7]: 5900 ng/mL; Cmin,ss [2, 7]: 1900 ng/mL; V1 [2, 7]: 12.5 ± 5.67 L; V2 [2, 7]: 29.9 ± 17.3 L; AUCss,0–24h [2, 8]: 67200 ng·h/mL; Cmax,ss [2, 8]: 5900 ng/mL; Cmin,ss [2, 8]: 1900 ng/mL; V1 [2, 8]: 12.5 L; V2 [2, 8]: 29.9 L; CL [2, 9]: 1.67 L/h; Cmax [2, 9]: 4590 ng/mL; V1 [2, 9]: 7.857 L; V2 [2, 9]: 12.668 L; t1/2 [2, 9]: 5.29 h; AUCss,0–24h [2, 10]: 79600 ng·h/mL; CL [2, 10]: 1.6 L/h; Css,avg [2, 10]: 3350 ng/mL; V1 [2, 10]: 38.6 L; V2 [2, 10]: 7.13 L; AUCss,0–24h ([2]; Chinese patients with CRO infections, 1.5–3.0 mg/kg/day, two-compartment model, ref Yang et al., 2022 [55]): 58500 ng·h/mL; C0 h ([2]; Chinese patients with CRO infections, ref Yang et al., 2022 [55]): 1240 ng/mL; V1 ([2]; Chinese patients with severe CRO infections, loading 1.73, maintain 2.22 mg/kg/day, two-compartment model, ref Luo et al., 2022 [54]): 11.7 L; AUCss,0–24h ([2]; Chinese patients with severe pneumonia, 50 mg every 12 h (infusion for 1 h), noncompartment model, ref Chen et al., 2021 [58]): 72700 ng·h/mL; t1/2 ([2]; Chinese patients with severe pneumonia, 50 mg every 12 h, ref Chen et al., 2021 [58]): 8.69 h; CL [2, 11]: 1.59 L/h; Vd [2, 11]: 20.5 L; AUCss,0–12 h ([2]; ECMO, Russian critically ill patients, COVID-19-associated pneumonia, loading 200–300 mg, 2.5–3 mg/kg/day, noncompartmental, ELISA, ref Surovoy et al., 2022 [53]): 43380 ng·h/mL; AUCss,0–24h [2, 12]: 96800 ng·h/mL; CSS,avg [2, 12]: 4.03 mg/L; Cmax [2, 12]: 5960 ng/mL; Cmin [2, 12]: 2400 ng/mL; Tmax [2, 12]: 5 ± 24 min; Vd [2, 12]: 19.73 L; Cmin ([2]; Following the loading dose, Chinese patients with CRKP bloodstream infections, loading 2.5 mg/kg, 1.25 mg/kg every 12 h, ref Yu et al., 2022 [56]): 1620 ng/mL; Cmax ([2]; Following the loading dose, Chinese patients with CRKP bloodstream infections, ref Yu et al., 2022 [56]): 5530 ng/mL; CL ([2]; Non-CRRT, Chinese patients with severe CRO infections, ref Luo et al., 2022 [54]): 1.5 L/h; AUCss,0–12 h [2, 13]: 34700 ng·h/mL; CL [2, 13]: 1.76 L/h; CSS,avg [2, 13]: 2.9 mg/L; Cmax [2, 13]: 5080 ng/mL; Cmin [2, 13]: 2150 ng/mL; Vd [2, 13]: 30.4 L; AUCss,0–24h ([2]; Normal renal function, Chinese patients, ref Wang et al., 2021 [49]): 68630 ng·h/mL; AUC ([2]; Normal renal function, Thai, American patients, 1.5–2.5 mg/kg/day, ref Thamlikitkul et al., 2016 [52]): 63500 ng·h/mL; CL ([2]; Normal renal function, Thai, American patients, ref Thamlikitkul et al., 2016 [52]): 2.5 ± 0.4 L/h; AUCss,0–24h ([2]; Renal insufficiency, Chinese patients, ref Wang et al., 2021 [49]): 93040 ng·h/mL; AUC [2, 14]: 56000 ng·h/mL; CL [2, 14]: 2.0 L/h; CL ([2]; human, in vivo): 1.95 L/h; Cmax ([2]; human, in vivo): 5500 ng/mL; CL ([2]; in vivo, 0.4 mg/kg/day): 2.5 ± 1.1 L/h; Css,avg ([2]; in vivo): 1480 ng/mL; V2 ([2]; in vivo): 17.9 L
